# Results reported in article PMC4840416, “Constructing and Validating High-Performance MIEC-SVM Models in Virtual Screening for Kinases: A Better Way for Actives Discovery” (Scientific Reports, 2016).
# Target: T1, recombinant human ALK protein (Homo sapiens, UniProt Q9UM73)
# T1 construct: purchased Life Technologies Inc. PV3867
# Assay: LanthaScreen TR-FRET in vitro inhibitory activity assay of ALK
# Assay type: biochemical
# Details: compound at 2ug/ml
# Experimental: All reagents and anhydrous solvents were obtained from commercial sources and used as received. The positive control inhibitors of ALK, crizotinib and ceritinib, were purchased from Bangshunda Technology and Selleck Chemicals, respectively. The compounds were dissolved in 100% dimethyl sulfoxide (DMSO) as a 10 mM stock solution. The final DMSO concentration in each reaction was less than 1%. Purified recombinant human ALK protein (Catalog number: PV3867) as well as reagents for TR-FRET assay, including Lantha Screen™ Tb-PY20 (Catalog number: PV3552), Fluorescein-Poly GT (Catalog number: PV3610), ATP (Catalog number: PV3227), Kinase Quench Buffer (Catalog number: P2832), Kinase Buffer (Catalog number: PV3189), and Antibody Dilution Buffer (Catalog number: PV3574), were all obtained from Life Technologies Inc.
# Lantha Screen™ kinase assay based on TR-FRET technology was used to measure the inhibitory activity of the screened compounds. All the assays were carried out in 384-well plate format. The 4 × test compounds were firstly prepared before the enzyme reaction starts. The 4 × recombinant human ALK protein and 2 × Substrate/ATP mixture were separately prepared in 50 mM HEPES (pH = 7.5), 0.01% BRIJ-35, 10 mM MgCl2, 4 mM MnCl2, 1 mM EGTA, and 2 mM DTT. The final 10 μL kinase reaction consists of 5 μL 1 × Substrate/ATP mixture (0.2 μM substrate and 5 μM ATP), 2.5 μL ALK (5 ng/ml ALK protein), and 2.5 μL 1 × test compounds with desired concentration. The assay plate was shook on a plate shaker for 30 seconds to mix the reactions thoroughly. After 1 hour kinase reaction incubation at room temperature (20 ~ 25 °C), 10 μL of pre-prepared 20 mM EDTA and 4 nM Tb-labeled antibody solution was then added to terminate the kinase reactions and to initiate antibody binding, and the assay plate was incubated for another 1 hour at room temperature. Then, the assay plate was placed into a fluorescence plate reader (BioTek Synergy™ 4) to measure both fluoresce in and terbium emission signals (excitation: 340 nm; emission: 520 and 495 nm, respectively) with 100 μs delay time and 200 μs integration time. To determine the IC50 values, the resulted inhibitory activity calculated from TR-FRET emission ratio (i.e. fluoresce in emission intensity/terbium emission intensity) was plotted against the concentration of inhibitor, and the data was fitted to a dose-response curve with a variable slop.
# T1 sequence (Q9UM73 1058-1620 limits assumed): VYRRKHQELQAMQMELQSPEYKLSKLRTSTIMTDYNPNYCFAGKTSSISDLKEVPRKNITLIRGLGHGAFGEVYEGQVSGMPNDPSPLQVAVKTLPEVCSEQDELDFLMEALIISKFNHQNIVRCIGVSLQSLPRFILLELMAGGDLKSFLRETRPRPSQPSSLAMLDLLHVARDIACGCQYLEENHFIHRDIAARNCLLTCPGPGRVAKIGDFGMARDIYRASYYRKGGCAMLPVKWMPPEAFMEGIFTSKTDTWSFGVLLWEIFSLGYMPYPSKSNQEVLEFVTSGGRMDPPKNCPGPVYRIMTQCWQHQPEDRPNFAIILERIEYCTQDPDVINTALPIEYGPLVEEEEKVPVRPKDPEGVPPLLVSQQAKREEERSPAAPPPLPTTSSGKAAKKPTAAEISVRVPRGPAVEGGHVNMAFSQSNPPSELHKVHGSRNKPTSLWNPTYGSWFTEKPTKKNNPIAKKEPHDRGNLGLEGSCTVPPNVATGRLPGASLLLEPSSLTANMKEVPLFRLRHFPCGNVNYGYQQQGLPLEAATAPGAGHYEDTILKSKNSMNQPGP
row,SMILES,Averaged Enzymatic Inhibition @ 2ug/ml (%)
1,O=C1/C(=C/c2ccc(-c3cccc(Cl)c3)o2)CCC/C1=C\c1ccc(-c2cccc(Cl)c2)o1 [AA-504/07472022],40.455
2,c1ccc2cc3c(ccc4ccc5cc6c(ccc7ccccc76)cc5c43)cc2c1 [AB-131/42301451],28.575
3,Cc1ccc(-c2nc(N3CC4(C)CC3CC(C)(C)C4)c3ccccc3n2)cc1 (stereo not shown) [AE-641/40974923],13.995
4,c1ccc(-c2oc3ncn4nc(COc5cccc6ccccc56)nc4c3c2-c2ccccc2)cc1 [AE-848/12917024],13.565
5,CC(C)c1ccc(-c2c(C#N)c(N)nc3sc(C(=O)Nc4ccc(Cl)cc4)c(N)c23)cc1 [AE-848/15116593],-8.375
6,Cc1ccccc1NC(=O)c1sc2nc(N)c(C#N)c(-c3ccc(C(C)C)cc3)c2c1N [AE-848/15116597],8.9
7,Cc1ccc(NC(=O)c2sc3nc(N)c(C#N)c(-c4ccc(C(C)C)cc4)c3c2N)cc1Cl [AE-848/15116611],10.08
8,O=C1C2=C(NC3=C(C(=O)c4ccccc43)C23C(=O)c2cccc4cccc3c24)c2ccccc21 [AE-848/15341192],13.145
9,COc1ccc(-n2c(-c3ccc(-c4ccccc4)cc3)nnc2-c2cccc3ccccc23)cc1 [AE-848/32007021],5.085
10,Cc1cccc(C)c1OCC(O)CN1CCC(CN2C(=O)c3cccc4cccc(c34)C2=O)CC1 (stereo not shown) [AF-399/14388040],-20.41
11,O=C1c2cccc3cccc(c23)C(=O)N1CC1CCN(S(=O)(=O)/C=C/c2ccccc2)CC1 [AF-399/14864072],-20.25
12,OC(CNCCc1ccccc1)Cn1c(-c2ccccc2)c(-c2ccccc2)c2ccc3ccccc3c21 (stereo not shown) [AF-399/15128092],-33.405
13,Cc1cc(C)c2c(c1)c(-c1ccccc1)c(-c1ccccc1)n2CC(O)CNCc1ccccc1 (stereo not shown) [AF-399/15128108],-21.105
14,Cc1cc(C)c2c(c1)c(-c1ccccc1)c(-c1ccccc1)n2CC(O)CNc1ccc(C(C)C)cc1 (stereo not shown) [AF-399/15128126],32.1
15,Cc1cc(C)c2c(c1)c(-c1ccccc1)c(-c1ccccc1)n2CC(O)CN1CCC(C)CC1 (stereo not shown) [AF-399/15128132],-9.645
16,CC(C)N(C(=O)Cn1c(/C=C/c2ccccc2)nc2ccccc21)c1ccccc1 [AF-399/15335536],5.725
17,Cc1ccc(-c2ccc(/C=C3/SC(N4CCN(c5cccc(C)c5)CC4)=NC3=O)o2)cc1 [AF-399/40881300],13.735
18,Cc1ccc(C2C(C(=O)c3cc4ccccc4o3)=C(O)C(=O)N2c2nc3c(C)cc(C)cc3s2)cc1 (stereo not shown) [AF-399/42017504],-5.97
19,Nc1cc(NC(=O)c2cn(-c3ccccc3)nc2-c2ccccc2)cc(Oc2ccccc2)c1 [AG-205/33688061],14.9
20,C=CCN(C(=O)c1ccc2nc(-c3ccccc3)c(-c3ccccc3)nc2c1)c1ccccc1 [AG-205/36717014],19.28
21,COc1cc(/C=N/n2c(-c3ccccc3)n[nH]c2=S)cc(OC)c1O [AG-205/36915079],18.19
22,CCc1ccc(-n2c(CSc3nnnn3-c3ccccc3)nc3ccccc3c2=O)cc1 [AG-205/37086057],40.815

row,SMILES,Averaged Enzymatic Inhibition @ 2ug/ml (%)
1,Cc1ccccc1NC(=O)c1cc2ccccc2c(C=Nc2ccccc2Cl)c1O [AG-664/32341038],6.53
2,Cc1cc(C)c2oc(-c3ccc(C)c(NS(=O)(=O)c4cc([N+](=O)[O-])ccc4Cl)c3)nc2c1 [AG-690/08629011],26.47
3,Cc1ccc(NC(=O)c2ccc(-c3ccccc3)cc2)c(OC(=O)c2ccc(-c3ccccc3)cc2)c1 [AG-690/09396003],3.685
4,CCCn1c(=O)c(C(=O)NNS(=O)(=O)c2ccc(Br)cc2)c(O)c2ccccc21 [AG-690/11765341],9.265
5,Cc1ccc(OS(=O)(=O)c2cccc(C(=O)Nc3ccccc3)c2)c(-n2nc3ccccc3n2)c1 [AG-690/11836103],-16.78
6,Cc1ccc(-c2cc(-c3c(-c4ccccc4)c4cc(Cl)ccc4[nH]c3=O)nc3ccccc23)cc1 [AG-690/12134081],10.575
7,O=C1c2ccccc2-c2c1c(-c1cccc(Oc3ccccc3)c1)nc1ccc3ccccc3c21 [AG-690/12869023],12.235
8,c1ccc(-c2oc3ncn4nc(CSc5nc6ccccc6s5)nc4c3c2-c2ccccc2)cc1 [AG-690/12869680],-1.245
9,Cc1ccccc1-c1nnc(-c2ccc(-c3ccccc3)cc2)n1-c1ccccc1 [AG-690/33068064],4.62
10,c1ccc2c(c1)Oc1ccccc1C2=C1c2ccccc2Oc2ccccc21 [AG-690/36541063],11.335
11,CC1=C(C(=O)Nc2ccccc2)C(c2ccccc2)n2c(s/c(=C/C=C\c3ccccc3)c2=O)=N1 (stereo not shown) [AG-690/37079179],15.845
12,O=C1c2ccccc2-c2onc3c(Sc4ccccc4)cc(Sc4ccccc4)c1c23 [AG-690/40097114],1.725
13,CC(C)(C)c1ccc(Oc2cc(Nc3ccccc3)c3c4c(onc24)-c2ccccc2C3=O)cc1 [AG-690/40097127],11.435
14,Cc1ccc(-c2cc(-c3ccccc3Cl)c3c(N)c(-c4nnc(-c5ccccc5)o4)sc3n2)cc1 [AG-690/40749514],-4.41
15,COc1ccc(-c2cc(C(=O)Nc3ccccc3-c3ccccc3)c3ccccc3n2)cc1 [AG-690/40749597],2.49
16,CCOC(=O)c1c(/N=C(/Nc2ccccc2-c2ccccc2)c2ccccc2)sc2c1CCCC2 [AG-690/40750112],16.665
17,Cc1ccc(S(=O)(=O)N(Cc2n[nH]c(=S)n2-c2ccccc2)c2cccc(Cl)c2)cc1 [AG-690/40751357],8.965
18,CCCCC1CCC(c2nc3c4c(c(Nc5cccc(C)c5)ccc4n2)C(=O)c2ccccc2-3)CC1 (stereo not shown) [AH-034/08463011],1.2
19,CCOc1cc(/C=N\NC(=O)CCc2ccccc2)ccc1OC(=O)/C=C/c1ccccc1 [AH-487/37011044],-17.16
20,Cc1cccc(N(CC(=O)N/N=C/c2cccc(Br)c2)S(=O)(=O)c2ccccc2)c1C [AH-487/40936079],0.44
21,O=C1c2cccc3c2C2=S(Sc4ccc(NC5CCCCC5)c1c42)N3C1CCCCC1 (stereo not shown) [AH-541/12737056],12.4
